Experimental data published in patent US20080199413A1, “Novel Use of Organic Compounds” (priority 2005, published 2008).

Tested on: human dermal fibroblasts
Experiment: UV-A radiation-induced mtDNA common deletion in human dermal fibroblasts (nested PCR)
Assay type: cell-based
Settings: for Prevalence of mtDNA deletion relative to untreated cells: representative experiment; for Protection of fibroblasts against the UV-A radiation-induced generation of the common deletion (in words): overall finding of 3 experiments
Text: Sunlight (Systems Dr. […]) irradiation device. […] The cells were then harvested by trypsinisation. […] Dermatol. […] (7293-7316); [NT] (13928-13905); [NT] (7901-7920); [NT] (13650-13631); [NT] (219-238); C2, [NT]

[1] = UV-A radiation + 0.25 μM carotenoid, after 1 week
[2] = UV-A radiation + 0.5 μM carotenoid, after 1 week
[3] = UV-A radiation + 1.0 μM carotenoid, after 1 week
[4] = UV-A radiation + 2.0 μM carotenoid, after 1 week
[5] = UV-A radiation + 3.0 μM carotenoid, after 1 week
[6] = all doses tested (0.25-3 μM), after 1 week

Structure (SMILES)	Prevalence of mtDNA deletion relative to untreated cells (UV-A radiation + 0.1 μM carotenoid, after 2 weeks)	Prevalence of mtDNA deletion relative to untreated cells (UV-A radiation + 0.25 μM carotenoid, after 2 weeks)	Prevalence of mtDNA deletion relative to untreated cells (UV-A radiation + 0.5 μM carotenoid, after 2 weeks)	Prevalence of mtDNA deletion relative to untreated cells (UV-A radiation + 1.0 μM carotenoid, after 2 weeks)	Prevalence of mtDNA deletion relative to untreated cells (UV-A radiation + 2.0 μM carotenoid, after 2 weeks)	Prevalence of mtDNA deletion relative to untreated cells (UV-A radiation + 3.0 μM carotenoid, after 2 weeks)	Effect on UV-A radiation-induced induction of the common deletion (in words) (all concentrations tested, after 2 weeks)	Prevalence of mtDNA deletion relative to untreated cells [1]	Prevalence of mtDNA deletion relative to untreated cells [2]	Prevalence of mtDNA deletion relative to untreated cells [3]	Prevalence of mtDNA deletion relative to untreated cells [4]	Prevalence of mtDNA deletion relative to untreated cells [5]	Effect on UV-A radiation-induced formation of the common deletion (in words) [6]	Effect on UV-A radiation-induced formation of the common deletion (in words) (at 0.5, 1 μM and 2 μM, after 1 week)	Protection of fibroblasts against the UV-A radiation-induced generation of the common deletion (in words)
CC1=C(/C=C/C(C)=C/C=C/C(C)=C/C=C/C=C(C)/C=C/C=C(C)/C=C/C2=C(C)C[C@@H](O)CC2(C)C)C(C)(C)CCC1 [β-cryptoxanthin]	0.80	0.64	0.25	0.62	0.25	1.03	abrogated	–	–	–	–	–	–	–	–
CC(C)=CCC/C(C)=C/C=C/C(C)=C/C=C/C(C)=C/C=C/C=C(C)/C=C/C=C(C)/C=C/C=C(\C)CCC=C(C)C [lycopene]	–	–	–	–	–	–	–	2.90	1.22	1.53	1.53	2.52	inhibits	Complete protection	consistently found to protect
CC1=C[C@H](O)CC(C)(C)[C@H]1/C=C/C(C)=C/C=C/C(C)=C/C=C/C=C(C)/C=C/C=C(C)/C=C/C1=C(C)C[C@@H](O)CC1(C)C [lutein]	–	–	–	–	–	–	–	0.98	0.27	0.71	0.37	0.59	completely prevented	–	found to protect
CC1=C(/C=C/C(C)=C/C=C/C(C)=C/C=C/C=C(C)/C=C/C=C(C)/C=C/C2=C(C)C[C@@H](O)CC2(C)C)C(C)(C)C[C@H](O)C1 [Zeaxanthin, zeaxanthin, reference compound]	–	–	–	–	–	–	–	–	–	–	–	–	–	–	no effect
